According to the NIST ThermoML archive (doi:10.1016/j.jct.2019.06.009):
Numbers after ± are expanded uncertainties.

What was measured:
[1] = Crystal; DSC
[2] = Molar enthalpy of transition or fusion; details: Crystal; DSC

For `C=NCC#N` [methyleneaminoacetonitrile], the Triple point temperature [1] was 400.19 ± 2.1 K and the “Molar enthalpy of transition or fusion” value [2] was 2.53 ± 0.239 kcal/mol.
